Patent publication US5183821A, “Method for treating leukemias using N-(2-dimethylaminoethyl)-3-amino-1,8-naphthalimide for treating leukemias and solid tumors” (priority 1991, dated 1993)
In brackets after ≈: the same amount, converted by molar mass.

How the values were obtained:
leukemia P388 = test: NCI studies against leukemia P388 (Appendix 1, MDA and T/C); format: in vivo, murine; details: for response vs control in vivo at 60 mg/kg: P388, dose 60,00 mg/kg; for response vs control in vivo at 120 mg/kg: P388, dose 120,00 mg/kg; for response vs control in vivo at 240 mg/kg: P388, dose 240,00 mg/kg; for STATUS (activity against leukemia P388): at the dose of the same line of the appendix table; for MDA against leukemia P388 / minimal effective dose: minor active dose reaching T/C≥120; for response vs control in vivo at 30 mg/kg: P388, dose 30,00 mg/kg; for minimal effective dose: P388
Excerpt: On the other hand, murine transplantable leukemias are a good predictor of anti-leukemia activity in human beings (Kenis "Dose schedules and mode of administration of chemotherapeutic agents in man". Recent Results Cancer Res. 21, 54-61 (1969). Only those tests which use the survival times as an activity parameter are valid as predictors of antileukemia activity in human beings (for instance, leukemia p388 y L-1210), whilst "in vitro" tests (HeLa cells and other) are inappropriate (Llombart-Rodriguez, 1983). NCI data generated in the last years confirm the value of above assertions to compounds of general formula [drawing 1] as described in U.S. Pat. No. 4,204,063.
Experimental results from NCI studies against leukemia P388 are shown in an appendix (Appendix 1). In order to simplify the presentation of results we have extracted from these the minor active dose (MDA) against leukemia P388--for each compound. MDA is defined as the minor dose of the drug that reaches the minimal activity criteria of the NCI. For leukemia P388 this criteria on the basis of survival time is a minimal increase in survival of treated animals over a control resulting in a T/C≥120. In the following table the MDA for 14 examples are presented. In cases where none of the tested doses reached the MDA, the MDA is indicated as "NONE". The column "cytotoxic activity" has been extracted from U.S. Pat. No. 4,204,063. Data are presented in order of the highest to lowest cytotoxic activity.

HeLa cells = details: cytotoxic activity in vitro, monolayer; cited from earlier work

Compound	response vs control in vivo at 60 mg/kg (leukemia P388; Mus musculus) [%]	response vs control in vivo at 120 mg/kg (leukemia P388; Mus musculus) [%]	response vs control in vivo at 240 mg/kg (leukemia P388; Mus musculus) [%]	STATUS (activity against leukemia P388) (leukemia P388)	MDA against leukemia P388 (leukemia P388)	ID50 in HeLa cells (HeLa cells) [µg/mL]	response vs control in vivo at 30 mg/kg (leukemia P388; Mus musculus) [%]	minimal effective dose (leukemia P388; Mus musculus) [mg/kg]	other results
Nc1cc2c3c(cccc3c1)C(=O)N(CCN1CCCCC1)C2=O [Example 12]	108	103	114	None dose tested	NONE	8.0 (≈ 24.7 µM)			
COc1cc2c3c(cccc3c1)C(=O)N(CCN1CCCC1)C2=O [Example 27]				None dose tested	NONE	0.75 (≈ 2.31 µM)			response vs control in vivo at 17 mg/kg (leukemia P388; Mus musculus, P388, dose 17,30 mg/kg): 112%; response vs control in vivo at 34 mg/kg (leukemia P388; Mus musculus, P388, dose 34,70 mg/kg): 116%; response vs control in vivo at 50 mg/kg (leukemia P388; Mus musculus, P388, dose 50,00 mg/kg): 100%; response vs control in vivo at 69 mg/kg (leukemia P388; Mus musculus, P388, dose 69,30 mg/kg): 116%; response vs control in vivo at 100 mg/kg (leukemia P388; Mus musculus, P388, dose 100,00 mg/kg): 101%; response vs control in vivo at 200 mg/kg (leukemia P388; Mus musculus, P388, dose 200,00 mg/kg): 100%; T/C % (leukemia P388; dose 138,60 mg/kg): Toxic
CC(=O)Nc1cc2c3c(cccc3c1)C(=O)N(CCN1CCCC1)C2=O [Example 31]	184	107		T/C > 120 active		5.0 (≈ 14.2 µM)	186	30	
O=C1c2cccc3cc(O)cc(c23)C(=O)N1CCN1CCOCC1 [Example 24]	110	117	127	T/C > 120 active		3.5 (≈ 10.7 µM)	107	240	
Nc1cc2c3c(cccc3c1)C(=O)N(CCN1CCOCC1)C2=O [Example 13]	102	102	109	None dose tested	NONE	10.0 (≈ 30.7 µM)			
CCN(CC)CCN1C(=O)c2cccc3cc(N)cc(c23)C1=O [Example 10]				T/C > 120 active		3.0 (≈ 9.63 µM)		3.2	response vs control in vivo at 1 mg (leukemia P388; Mus musculus, P388, dose 1,56 mg as printed): 101%; response vs control in vivo at 1 mg (leukemia P388; Mus musculus, P388, dose 1,60 mg as printed): 100%; response vs control in vivo at 3 mg (leukemia P388; Mus musculus, P388, dose 3,12 mg as printed): 98%; response vs control in vivo at 3 mg (leukemia P388; Mus musculus, P388, dose 3,20 mg as printed): 108%; response vs control in vivo at 6 mg (leukemia P388; Mus musculus, P388, dose 6,25 mg as printed): 98%; response vs control in vivo at 6 mg (leukemia P388; Mus musculus, P388, dose 6,50 mg as printed): 107%; response vs control in vivo at 13 mg (leukemia P388; Mus musculus, P388, dose 13,00 mg as printed): 121%; response vs control in vivo at 25 mg (leukemia P388; Mus musculus, P388, dose 25,00 mg as printed): 114%; response vs control in vivo at 26 mg (leukemia P388; Mus musculus, P388, dose 26,00 mg as printed): 124%; response vs control in vivo at 50 mg (leukemia P388; Mus musculus, P388, dose 50,00 mg as printed): 160%; response vs control in vivo at 100 mg (leukemia P388; Mus musculus, P388, dose 100,00 mg as printed): < 100%
CC(=O)Nc1cc2c3c(cccc3c1)C(=O)N(CCN(C)C)C2=O [Example 30]	< 100			T/C > 120 active		4.0 (≈ 12.3 µM)		3.75	response vs control in vivo at 3.75 mg/kg (leukemia P388; Mus musculus, P388, dose 3,75 mg/kg): 137%; response vs control in vivo at 7 mg/kg (leukemia P388; Mus musculus, P388, dose 7,50 mg/kg): 144%; T/C % (leukemia P388; dose 120,00 mg/kg): Toxic.; T/C % (leukemia P388; dose 240,00 mg/kg): Toxic.
CCOC(=O)Nc1cc2c3c(cccc3c1)C(=O)N(CCN(C)C)C2=O [Example 28]				T/C > 120 active		10.0 (≈ 28.1 µM)	123	30	
CCN(CC)CCCN1C(=O)c2cccc3cc([N+](=O)[O-])cc(c23)C1=O [Example 3]	108	103	114	None dose tested	NONE	20.0 (≈ 56.3 µM)			
CCOC(=O)Nc1cc2c3c(cccc3c1)C(=O)N(CCN1CCCC1)C2=O [Example 29]	131	135	158	T/C > 120 active		10.0 (≈ 26.2 µM)	127	30	
O=C1c2cccc3cc([N+](=O)[O-])cc(c23)C(=O)N1CCN1CCOCC1 [Example 4]	96	96	100	None dose tested	NONE	6.0 (≈ 16.9 µM)			
COc1cc2c3c(cccc3c1)C(=O)N(CCN(C)C)C2=O [Example 26]				T/C > 120 active		1.5 (≈ 5.03 µM)		18.9	
Nc1cc2c3c(cccc3c1)C(=O)N(CCN1CCCC1)C2=O [Example 11]				T/C > 120 active		1.5 (≈ 4.85 µM)		6.5	response vs control in vivo at 24 mg/kg (leukemia P388; Mus musculus, P388, dose 24,20 mg/kg): 160%; response vs control in vivo at 48 mg/kg (leukemia P388; Mus musculus, P388, dose 48,39 mg/kg): 96%
